Converted amounts (≈) assume the structure as drawn. “And” between values parts separate entries of the source, which are not always exact repeats. Identical values can stand only once. Like-named read-outs stand apart in the source and are kept apart here.
Legend:
[1] = tested on: Staphyloccus aureus (MRSA) ATCC 33592; assay: Minimum Inhibitory Concentration (MIC) vs MRSA; conditions: Staphylococcus aureus
clinical = conditions: human, in vivo
[2] = Adverse effects / tissue toxicity after subcutaneous tumescent infiltration (TAD trial)
Description: At the time when each sample of TISF was obtained, patients were examined and questioned about signs and symptoms of subcutaneous tissue toxicity including unusual soreness, tenderness, discoloration, swelling at sites of subcutaneous tumescent infiltration. […] One week after TAD patients were questioned by telephone about any signs and symptoms of subcutaneous tissue toxicity at the sites of TAD.

[3] = Phase I pharmacokinetic clinical trial: TAD vs IVAD of cefazolin and metronidazole (TISF and serum); conditions: for AUC / Cmax: human, in vivo
[4] = human, in vivo
[5] = IVAD 500 mg; abdominal wall surgery; cited from earlier work
[6] = Safety of tumescent drug delivery: subcutaneous infiltration of tumescent acyclovir and gentamicin; type: in vivo, human
[7] = 28 mg/kg of tumescent lidocaine
platelet function = assay: Bleeding time and bleeding area before and after tumescent lidocaine exposure; type: in vivo, human
Method: The skin of the left and right thigh of a subject is cleaned and allowed to dry. […] Simultaneous 4 mm deep puncture wounds are made to the same area of the left and right thighs with disposable lancets. The puncture sites are blotted with filter paper every 30 seconds, until bleeding stops and the bleeding time for each thigh is recorded. The bleeding times of the left and right thigh are compared to determine if administration of TLAnti increases bleeding time. Normal bleeding time measured by the Duke method is 1 to 3 minutes.
In a preliminary experiment, bleeding time and bleeding area were measured in a patient before and after tumescent lidocaine exposure. […] In contrast, there was a 40% increase in Average Bleeding Area (BA). Bleeding Area (BA) was a more sensitive and a more specific test for platelet function compared to Bleeding Time (BT). […] In other words, TAD may reduce the risk of both post-operative surgical site infection and post-operative thromboembolism.

platelet aggregation = conditions: cited from earlier work
[8] = routine injection; cited from earlier work
[9] = tested on: Staphyloccus aureus (MRSA) ATCC 33592; assay: Minimum Bactericidal Concentration (MBC) vs MRSA; type: cell-based, Staphylococcus aureus
Description: Determinations of MBC followed the method described in “Report on the Working Party on Antibiotic Sensitivity Testing of the British Society of Antimicrobial Chemotherapy: A Guide to Sensitivity Testing.”

[10] = IV Lidocaine; neuropathic pain; cited from earlier work
Herpes zoster = conditions: without repeat dosing
[11] = 8 of 10 obese subjects and 3 of 10 normal controls; cited from earlier work
[12] = dilute drug after subcutaneous tumescent infiltration
[13] = 20 ml subcutaneous TI, 6 of 6 subjects, 6 days
[14] = after vs before tumescent lidocaine exposure
[15] = post-op tumescent lidocaine exposure, single tests T3, T4, Patient 1

Cc1nnc(SCC2=C(C(=O)O)N3C(=O)[C@@H](NC(=O)Cn4cnnn4)[C@H]3SC2)s1 [Cefazolin]
MIC [1]: 125 to 250 µg/mL (≈ 0.275 to 0.55 mM)
Tmax (clinical): 8 to 12 h
adverse local or systemic effects ([2]; in vivo, sc): no adverse local or systemic effects

Cc1ncc([N+](=O)[O-])n1CCO [Metronidazole]
AUC∞ in TISF after TAD, times greater than in serum after IVAD ([3]; 500 mg TAD vs 500 mg IVAD): 8.1 times
AUC ([3]; 500 mg, Table 15B, Abdomen, TISF, TAD, 413 mg/L, with cefazolin): 1030 µg·h/mL
AUC ([3]; 500 mg, Table 15B, Abdomen, serum, IVAD, with cefazolin): 127 µg·h/mL
AUC ([3]; 500 mg, Table 15B, Abdomen, serum, TAD, 413 mg/L, with cefazolin): 81 µg·h/mL
Cmax ([3]; 500 mg, Cmax in tumescent interstitial fluid, TAD solution containing 500 mg of metronidazole): 370000 ng/mL
Cmax ([3]; 500 mg, Cmax, Table 15B, Abdomen, TISF, TAD, 413 mg/L, with cefazolin): 160000 ng/mL
Cmax ([3]; 500 mg, Cmax, Table 15B, Abdomen, serum, IVAD, with cefazolin): 14000 ng/mL
Cmax ([3]; 500 mg, Cmax, Table 15B, Abdomen, serum, TAD, 413 mg/L, with cefazolin): 4800 ng/mL
AUC ([3]; 600 mg, Table 16B, Abdomen, serum, TAD, 172 mg/L, TAD dose 600 mg): 81 µg·h/mL
Cmax ([3]; 600 mg, Cmax, Table 16B, Abdomen, TISF, TAD, 172 mg/L, TAD dose 600 mg): 160000 ng/mL
Cmax ([3]; 600 mg, Cmax, Table 16B, Abdomen, serum, IVAD dose 600 mg): 14000 ng/mL
Cmax ([3]; 600 mg, Cmax, Table 16B, Abdomen, serum, TAD, 172 mg/L, TAD dose 600 mg): 4800 ng/mL
AUC ([3]; Table 16B, Abdomen, TISF, TAD + IVAD, 200 mg/L, TAD dose 400 mg, IVAD dose 200 mg): 1130 µg·h/mL
AUC ([3]; Table 16B, Abdomen, serum, TAD + IVAD, 200 mg/L, TAD dose 400 mg, IVAD dose 200 mg): 117 µg·h/mL
Cmax ([3]; Cmax, Table 16B, Abdomen, TISF, TAD + IVAD, 200 mg/L, TAD dose 400 mg, IVAD dose 200 mg): 150000 ng/mL
Cmax ([3]; Cmax, Table 16B, Abdomen, serum, TAD + IVAD, 200 mg/L, TAD dose 400 mg, IVAD dose 200 mg): 5900 ng/mL
mean Tmax (time of Cmax in serum) [4]: 11
Tmax (clinical): 10 to 12 h
concentration in subcutaneous fat [5]: 600 to 1700 ng/mL
adverse local or systemic effects ([2]; in vivo, sc): no adverse local or systemic effects

CNC[C@H](O)c1ccc(O)c(O)c1 [epinephrine]
adverse local or systemic effects [2, 12]: no adverse local or systemic effects

Gentamicin
ecchymosis [6, 13]: no ecchymosis
local tenderness upon palpation [6, 13]: no local tenderness
stinging upon injection ([6]; 20 ml subcutaneous TI, acyclovir 1 gm in 1130 ml, gentamicin 80 mg in 1110 ml tumescent lidocaine solution, 6 of 6 subjects): no stinging
clinically significant adverse effects ([6]; injected subcutaneously in a dilute tumescent solution): without any clinically significant adverse effects

CCN(CC)CC(=O)Nc1c(C)cccc1C [Lidocaine]
MIC [1]: ~5000 µg/mL (≈ 21.3 mM)
MIC ([1]; read-out: MIC end point): 5000 µg/mL (≈ 21.3 mM)
duration of therapeutic serum lidocaine concentrations [7]: ≥ 12 h
Average Bleeding Area (BA) (platelet function; after tumescent lidocaine exposure (Control BA = 541)): Lidocaine BA = 759
Average Bleeding Time (BT) (platelet function; after tumescent lidocaine exposure (Control BT = 6)): Lidocaine BT = 5.75
change in Average Bleeding Time (BT) (platelet function; [14]): essentially no change
increase in Average Bleeding Area (BA) (platelet function; [14]): 40%
Bleeding Area BA (platelet function; [15]): 791.81 and 726.03
Bleeding Time BT × 2 (platelet function; [15]): 10 and 13
concentrations that consistently inhibit in-vitro platelet aggregation (platelet aggregation; aggregation induced by ADP, epinephrine and collagen): ≥ 0.5 mg/mL
systemic concentrations with no effect on platelet aggregation (platelet aggregation; safe systemic concentrations): ≤ 6 micrograms/ml
duration of routine local anesthesia [8]: ~2 h
MRSA survival at test concentration (MBC test) ([9]; Day 1, 1,000 mg/L, MRSA Inoculum 4.7 × 10^5 CFU/ml): +
MRSA survival at test concentration (MBC test) ([9]; Day 2, 1,000 mg/L, MRSA Inoculum 4.4 × 10^5 CFU/ml): +
MRSA survival at test concentration (MBC test) ([9]; Day 2, 5,000 mg/L, MRSA Inoculum 4.4 × 10^5 CFU/ml): +
MRSA survival at test concentration (MBC test) ([9]; Day 2, 10,000 mg/L, MRSA Inoculum 4.4 × 10^5 CFU/ml): 0
MBC ([9]; Staphylococcus aureus, 48 h, read-out: MBC end point): 10000 µg/mL (≈ 42.7 mM)
mean serum lidocaine concentration at complete analgesia [10]: 3.79 ± 1.00 µg/mL
adverse local or systemic effects [2, 12]: no adverse local or systemic effects

Nc1nc2c(ncn2COCCO)c(=O)[nH]1 [Acyclovir]
duration of elimination of acute zoster pain (Herpes zoster): at least 12 hours
clinically significant adverse effects ([6]; in vivo, sc): without any clinically significant adverse effects
ecchymosis ([6]; in vivo, sc): no ecchymosis
local tenderness upon palpation ([6]; in vivo, sc): no local tenderness

CO[C@@]1(NC(=O)Cc2cccs2)C(=O)N2C(C(=O)O)=C(COC(N)=O)CS[C@@H]21 [cefoxitin]
subcutaneous bioavailability by IVAD, times less than by TAD ([3]; 10×16, for a significant proportion of patients): approximately 160 times
subcutaneous bioavailability (AUC) of free drug after IVAD, times less than serum bioavailability [11]: 10 times

Source: patent US12303591B2, “Tumescent infiltration drug delivery of high subcutaneous drug concentrations with prolonged local and systemic effects and minimal local or systemic toxicity” (priority 2015, dated 2025)
